# Biological target: T1, dual specificity phosphatase 22 (DUSP22) (Homo sapiens, UniProt Q9NRW4)
# T1 construct: recombinant DUSP22 from pET-28a(+)-DUSP22, purified from E. coli BL21(DE3)
# T1 sequence (Q9NRW4 2-184): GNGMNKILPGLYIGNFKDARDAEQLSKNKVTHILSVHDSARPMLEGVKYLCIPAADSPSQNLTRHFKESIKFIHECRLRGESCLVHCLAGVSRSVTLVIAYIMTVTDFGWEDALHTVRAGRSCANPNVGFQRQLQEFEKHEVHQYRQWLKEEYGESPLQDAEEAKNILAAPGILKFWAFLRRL
# Assay: fluorescent 3-OMFP phosphatase inhibition assay in droplet microfluidic chip (microwell plate IC50 […])
# Assay type: biochemical
smiles,measurement,value
"CCN(N=O)c1ccc(O)c(O)c1 [ethyl-3,4-dephostatin]",IC50,5.79 ± 1.09 µM

# From PMC9496282, “Analysis of Phosphatase Activity in a Droplet-Based Microfluidic Chip” (Biosensors, 2022)
